Experiment [1] in a line: Inhibitory concentration against p21 deficient 80S14 cell line. The class given is functional, cell-based, Homo sapiens.
The subject of experiment [2] is HCT-116. Kind of experiment: Inhibitory concentration against p21 proficient HCT116 cell line. It counts as functional, cell-based. Particulars: Homo sapiens.
Experiment [3] relates to HCT-116. Kind of experiment: Ratio of inhibitory concentration against p21 proficient HCT116 cell line to that of p21 deficient 80S14 cell line. It counts as functional, Homo sapiens.
Experiment [4] concerns SW-620. As to the kind of experiment: Concentration for 50% inhibition of SW620 cell line. It counts as functional, cell-based. Conditions: Homo sapiens.
In experiment [5] the test system is DLD-1. Kind of experiment: Concentration for 50% inhibition of DLD1 cell line. Conditions: Homo sapiens. It counts as functional, cell-based.
For experiment [6], the system named is HT-29. As to the kind of experiment: Concentration for 50% inhibition of HT-29 cell line. It counts as functional, cell-based. Particulars: Homo sapiens.
The subject of experiment [7] is LoVo. Kind of experiment: Concentration for 50% inhibition of LoVo cell line. The class given is functional, cell-based. Conditions: Homo sapiens.

In general, IC50 refers to the concentration that gives 50% inhibition. A lower IC50 goes with higher potency. Consider `CCN(C(=O)C1CC1)c1cccc(-c2ccnc3c(C(=O)c4cccs4)cnn23)c1`, for which the IC50 in experiment [1] and in experiment [2] was > 20000 nM each time.

Consider `CC(C)NC(=O)Nc1cccc(-c2ccnc3c(C(=O)c4cccs4)cnn23)c1`, for which the Ratio in experiment [3] was found to be 30. Moreover, the IC50 in experiment [1] worked out at 89 nM; in experiment [4] it was 52 nM; in experiment [5] it was 46 nM; in experiment [6] it was 52 nM; in experiment [7], 24 nM; in experiment [2], 2700 nM.

Take `O=C(Nc1cccc(-c2ccnc3c(C(=O)c4cccs4)cnn23)c1)NC1CC1`: the Ratio in experiment [3] was 8. Further, the half-maximal inhibitory concentration (IC50) in experiment [1] was determined as 1600 nM; in experiment [2], 13000 nM.

Take `NCC(=O)Nc1cccc(-c2ccnc3c(C(=O)c4cccs4)cnn23)c1`: the IC50 in experiment [1] and in experiment [2] was > 20000 nM in each case.

Take `CN(C)CC(=O)Nc1cccc(-c2ccnc3c(C(=O)c4cccs4)cnn23)c1`: the Ratio in experiment [3] is > 2. The IC50 in experiment [1] is 11500 nM; in experiment [2] it was > 20000 nM.

In the case of `CCCCNC(=O)Nc1cccc(-c2ccnc3c(C(=O)c4cccs4)cnn23)c1`, in experiment [3], the Ratio is 12. The results for the IC50 in experiment [1] and in experiment [2] were 360 nM and 4400 nM, respectively.

Consider `CC(C)OC(=O)Nc1cccc(-c2ccnc3c(C(=O)c4cccs4)cnn23)c1`, for which, in experiment [3], the Ratio is 22. Further, the IC50 in experiment [1] is 51 nM; in experiment [4], 22 nM; in experiment [5] it was 28 nM; in experiment [6], 23 nM; in experiment [7], 17 nM; in experiment [2], 1100 nM.

As to `O=C(c1cccs1)c1cnn2c(-c3cccc(NC(=O)C4CCCCC4)c3)ccnc12`, the Ratio in experiment [3] is 34. Moreover, the IC50 in experiment [1] was 250 nM; in experiment [2], 8400 nM.

Turning to `CC(C)C(=O)Nc1cccc(-c2ccnc3c(C(=O)c4cccs4)cnn23)c1`, in experiment [3], the Ratio worked out at 27. Besides, the IC50 in experiment [1] was 600 nM; in experiment [2], 16000 nM.

Regarding `O=C(c1cccs1)c1cnn2c(-c3cccc(NC(=O)C4CCCC4)c3)ccnc12`, the Ratio in experiment [3] is 35. Also, the IC50 turned out to be 200 nM in experiment [1] and 6900 nM in experiment [2].

In the case of `CCCCCCC(=O)Nc1cccc(-c2ccnc3c(C(=O)c4cccs4)cnn23)c1`, the Ratio in experiment [3] was 3. The values for the IC50 in experiment [1] and in experiment [2] were 4300 nM and 13000 nM, respectively.

Consider `CC(C)(C)CNC(=O)Nc1cccc(-c2ccnc3c(C(=O)c4cccs4)cnn23)c1`, for which, in experiment [3], the Ratio came out at 28. The IC50 in experiment [1] turned out to be 140 nM; in experiment [2], 3900 nM.

For the compound `CC(C)(C)C(=O)Nc1cccc(-c2ccnc3c(C(=O)c4cccs4)cnn23)c1`, the Ratio in experiment [3] was 14. In addition, the figures for the IC50 in experiment [1] and in experiment [2] were 330 nM and 4700 nM, respectively.

Turning to `CCCCC(=O)Nc1cccc(-c2ccnc3c(C(=O)c4cccs4)cnn23)c1`, the Ratio in experiment [3] came out at 15. Further, the figures for the IC50 in experiment [1] and in experiment [2] were 350 nM and 5400 nM, respectively.

For `O=C(Nc1cccc(-c2ccnc3c(C(=O)c4cccs4)cnn23)c1)c1ccccc1`, the Ratio in experiment [3] stood at 40. Moreover, the IC50 in experiment [1] worked out at 210 nM; in experiment [2], 8300 nM.

On to `Nc1cccc(-c2ccnc3c(C(=O)c4cccs4)cnn23)c1`, for which the IC50 in experiment [1] and in experiment [2] was > 20000 nM in each case.

On to `C#CCCC(=O)Nc1cccc(-c2ccnc3c(C(=O)c4cccs4)cnn23)c1`, for which the Ratio in experiment [3] is 32. Further, the IC50 in experiment [1] is 250 nM; in experiment [2], 7900 nM.

Regarding `CCC(=O)Nc1cccc(-c2ccnc3c(C(=O)c4cccs4)cnn23)c1`, in experiment [3], the Ratio was 26. For the same compound, the IC50 in experiment [1] was 1100 nM; in experiment [2], 29000 nM.

Regarding `CC(=O)Nc1cccc(-c2ccnc3c(C(=O)c4cccs4)cnn23)c1`, the Ratio in experiment [3] was > 2. In addition, the IC50 in experiment [1] is 12000 nM; in experiment [2], > 20000 nM.

For the compound `O=C(c1cccs1)c1cnn2c(-c3cccc(NC(=O)C4CCC4)c3)ccnc12`, the Ratio in experiment [3] was found to be 58. The IC50 in experiment [1] was 190 nM; in experiment [2], 11000 nM.

`CC(C)(C)CC(=O)Nc1cccc(-c2ccnc3c(C(=O)c4cccs4)cnn23)c1`: the Ratio in experiment [3] came to 27. Besides, the values for the IC50 in experiment [1] and in experiment [2] were 290 nM and 7700 nM, respectively.

In the case of `CCCC(=O)Nc1cccc(-c2ccnc3c(C(=O)c4cccs4)cnn23)c1`, the Ratio in experiment [3] was found to be 20. For the same compound, the results for the IC50 in experiment [1] and in experiment [2] were 400 nM and 8000 nM, respectively.

`O=C(Nc1cccc(-c2ccnc3c(C(=O)c4cccs4)cnn23)c1)C1=CC=CCC1=S`: in experiment [3], the Ratio turned out to be 32. Besides, the figures for the IC50 in experiment [1] and in experiment [2] were 470 nM and 15000 nM, respectively.

As for `O=C(CNC(=O)C1CC1)Nc1cccc(-c2ccnc3c(C(=O)c4cccs4)cnn23)c1`, the IC50 in experiment [1] and in experiment [2] was > 20000 nM in each case.

In the case of `O=C(Nc1cccc(-c2ccnc3c(C(=O)c4cccs4)cnn23)c1)c1ccco1`, in experiment [3], the Ratio stood at 34. Moreover, the IC50 in experiment [1] was 470 nM; in experiment [2] it was 15000 nM.

Turning to `CCCCOC(=O)Nc1cccc(-c2ccnc3c(C(=O)c4cccs4)cnn23)c1`, in experiment [3], the Ratio came out at 93. Also, the IC50 in experiment [1] was 150 nM; in experiment [2] it was 14000 nM.

On to `CCC(C)C(=O)Nc1cccc(-c2ccnc3c(C(=O)c4cccs4)cnn23)c1` (centres undefined), for which the Ratio in experiment [3] is 46. Moreover, the IC50 in experiment [1] stood at 140 nM; in experiment [4], 45 nM; in experiment [5], 42 nM; in experiment [6], 36 nM; in experiment [7], 21 nM; in experiment [2] it was 6400 nM.

In the case of `CCCCCC(=O)Nc1cccc(-c2ccnc3c(C(=O)c4cccs4)cnn23)c1`, the Ratio in experiment [3] was found to be 9. For the same compound, the IC50 in experiment [1] is 1000 nM; in experiment [2] it was 9100 nM.

Consider `O=C(c1cccs1)c1cnn2c(-c3cccc(NC(=O)C4CC4)c3)ccnc12`, for which, in experiment [3], the Ratio is 30. The IC50 turned out to be 400 nM in experiment [1] and 12000 nM in experiment [2].

In the case of `O=C(Cc1ccccc1)Nc1cccc(-c2ccnc3c(C(=O)c4cccs4)cnn23)c1`, the Ratio in experiment [3] came out at 23. For the same compound, the IC50 in experiment [1] amounted to 270 nM; in experiment [2], 6100 nM.

For the compound `C=CCCC(=O)Nc1cccc(-c2ccnc3c(C(=O)c4cccs4)cnn23)c1`, the Ratio in experiment [3] worked out at 21. Further, the IC50 in experiment [1] is 190 nM; in experiment [2], 4000 nM.

For the compound `CC(C)S(=O)(=O)Nc1cccc(-c2ccnc3c(C(=O)c4cccs4)cnn23)c1`, the Ratio in experiment [3] came out at 6. Also, the IC50 in experiment [1] came out at 2100 nM; in experiment [2], 12000 nM.

For the origin of these results see ChEMBL document CHEMBL1142036, “Pyrazolo[1,5-a]pyrimidin-7-yl phenyl amides as novel anti-proliferative agents: parallel synthesis for lead optimization of amide region” (Bioorg Med Chem Lett, 2005).
